We go through one compound from patent publication US7855228B2, “Antibiotics targeting MreB” (The Board of Trustees of the Leland Stamford Junior …, priority 2005, dated 2010).

The structures appear in SMILES notation.

This assay relates to E. coli JE1011, JST975. Kind of assay: Paper disk growth inhibitory zone. The format is cell-based. As to conditions: paper disk φ 8 mm, 200 μg of A22, 24 h, 37° C. Here is the method:
Isolation of A22-resistant mutant Our strategy for identifying the molecular target(s) of A22 involved isolating resistant mutants which grow in the presence of concentrations of A22 that inhibit growth of the parent strain. After 24 h incubation at 37° C., E. coli strains such as JE1011 formed a turbid growth inhibitory zone (φ 12 mm) around a paper disk (φ 8 mm) containing 200 μg of A22. To identify a more suitable parent strain for our selection, we screened for a more drug-sensitive strain that would form clear growth inhibitory zones under similar incubation conditions.
Bacterial strains used E. coli K-12 strains JE1011 (F^− leuB thr trp his thy ara lac xyl mtl rpsL tonA), JST975 (the same as JE1011 but ponB) (Tamaki et al. 1977), W3110 (wild-type), MG1655 (wild-type), DV14 (F^− metB1 panD2 panF1 zhc-12::Tn10) (Vallari & Rock 1985), CAG12149 (F^− zbd-601::Tn10) (Singer et al. 1989), AT1325-678 (F^− lip-9 thi-1 his-4 purB15 proA2 mtl-1 Δmre678) (Wachi et al. 1987) and JM109 [recA1 endA1 gyrA96 thi-1 hsdR17 Δ(lac-proAB) supE44 relA1 F′ (traD36 proAB^+ lacI^q lacZΔM15)] (Yanisch-Perron et al. 1985) were used in this study. Cells were grown in Lennox (L) medium (1% Bactopeptone, 0.5% yeast extracts, 0.5% NaCl, 0.1% glucose, pH 7.2, supplemented with 20 μg/ml thymine). For the growth of AT1325-678, 0.1 μg/ml lipoic acid was supplemented. […]

Turning to `N=C(N)SCc1ccc(Cl)c(Cl)c1` [Compound 1, S-(3,4-dichlorobenzyl)isothiourea], the “Growth inhibitory zone (turbid)” value (JE1011) is recorded as 12 mm. Besides, the “Growth inhibitory zone (clear)” value (JST975 (ponB)) is reported as 32 mm.
